From US6911432B2, “Drugs, foods or drinks with the use of algae-derived physiologically active substances” (priority 1997, dated 2005)

Experiments:
RAW 264.7 cells = assay: NO production induced by LPS, NO2- concentration in medium; format: cell-based, mouse; settings: for inhibition of NO production (in words): RAW264.7, aqueous 100 mM solution used as sample
Protocol: (1) RAW 264.7 cells (ATCC TIB 71) were suspended in phenol red-free Dulbecco's modified Eagle's medium containing 10% fetal bovine serum (manufactured by Gibco) and 2 mM L-glutamine (manufactured by Life Technologies Oriental, 25030-149) at a concentration of 3×10^5 cells/ml, and 500 μl portions thereof were seeded to respective wells of a 48-well microtiter plate and incubated at 37° C. for 12 hours in the presence of 5% CO2. To each well were added 10 μl of 25 μg/ml lipopolysaccharide (LPS, manufactured by Sigma, L-2012) and 10 μl of aqueous 5000, 1500, 500, 150 or 50 μM agarobiose or neoagarobiose (manufactured by Sigma, G4410) solution, and the plate was incubated for additional 12 hours. Then, concentration of NO2^− produced by oxidation of NO in the medium was measured. As control groups, a group to which LPS was not added and a group to which agarobiose or neoagarobiose was not added were provided.
After incubating as described above, 100 μl of 4% Greece reagent (manufactured by Sigma, G4410) was added to 100 μl of the medium, and the mixture was allowed to stand for 15 minutes at room temperature. Then, the absorbance at 490 nm was measured. NO2^− concentration in the medium was calculated with reference to a calibration curve prepared by using NaNO2 at given concentrations dissolved in the same medium as that described above. All the measurements were carried out in triplicate.
(2) A suspension of 5 g of commercially available agar (Ina agar type S-7, manufactured by Ina Shokuhin Kogyo) in 45 ml of 0.1 N HCl was treated at 95° C. for 13 minutes. After cooling to room temperature, the suspension was neutralized with NaOH and filtered through 0.22 μm MILLEX-GP filter (manufactured by Milipore, SLGPR25LS). […] Namely, 10 μl of 25 μg/ml LPS and 10 μl of a 20-fold dilution of the sample mentioned above were added to wells of a 48 well microtiter plate containing RAW264.7 cells which had been incubated in the wells. The measurement was carried out with the culture medium. As control groups, a group to which LPS was not added, a group to which a sample was not added and a group to which 2.5 mM citric acid was added were provided. All the measurement were carried out in duplicate.

HL-60 cells [1] = assay: antiproliferation assay, MTT method, absorbance at 590 nm; format: cell-based, human; settings: for antiproliferation activity against HL-60 cells (in words): preparations and fractions, compared with control to which water was added
HL-60 cells [2] = assay: apoptosis-inducing assay, cell morphology under an optical microscope; format: cell-based, human
Protocol: Human promyelocytic leukemia cell HL-60 (ATCC CCL-240) was incubated at 37° C. in RPMI 1640 medium (manufactured by Gibco) supplemented with 10% of fetal bovine serum (JRH Bioscience) which had been treated at 56° C. for 30 minutes, and suspended in the same medium at a concentration of 500 cells/90 μl. Each 90 μl portion of the suspension was distributed into each well of a 96 well plate (manufactured by Falcon). To the suspension in each well was added 10 μl of the above-mentioned acid decomposition solution, a 10-fold dilution of the solution or water, and incubated with 5% CO2 at 37° C. After 24 hour and 48 hour from the initiation of the incubation, the cell morphology was observed under an optical microscope. Then, according to the MTT method described in “Apoptosis Jikken Protocol” (Syuzyun-sha, Tanuma, Seiichi ed., pp. 156 (1994)), 5 mg/ml of 3-(4,5-dimethylthiazole-2-yl)-2,5-diphenyltetrazolium bromide (manufactured by Sigma) and 10 μl of phosphate buffered saline solution were added to the culture and the incubation was continued for additional 4 hours. Then, 100 μl of 2-propanol containing 0.04 N hydrochloric acid was added to the culture, and the mixture was thoroughly stirred. An absorbance at 590 nm was measured and the number of viable cells was calculated from the absorbance measured for each of the wells, which was compared each other.
Each elution peak was fractionated, collected, evaporated to dryness under reduced pressure and then dissolved in 300 μl of water. Each fraction was sterilized by filtration and its 10 μl portion was placed in a well of a 96 well microtiter plate. Then, 90 μl of RPMI 1640 medium (manufactured by Nissui) containing 10% fetal bovine serum (manufactured by Gibco) and 5,000 HL-60 cells (ATCC CCL-240) was added thereto, followed by incubation at 37° C. for 48 hours with 5% CO2. The cell morphology was observed under an optical microscope. Then, 5 mg/ml 3-(4,5-dimethylthiazole-2-yl)-2,5-diphenyltetrazolium bromide and 10 μl of phosphate buffered saline solution were added thereto and the incubation was continued for additional 4 hours. To the culture was added 100 μl of 2-propanol containing 0.04 N hydrochloric acid and the resultant mixture was thoroughly stirred. The absorbance at 590 nm was measured to determine a cell proliferation rate.

[3] = system: lipid peroxide radical production; assay: inhibition of lipid peroxide radical production (tert-butyl hydroperoxide, bacterial growth readout); format: cell-based, Staphylococcus aureus 3A; parameters: key to growth of the bacterium (activity of inhibiting lipid peroxide radical production): + represents the sample in which the growth of the bacterium was observed; −represents the sample in which the growth of the bacterium was not observed
Protocol: Staphylococcus aureus 3A (National Collection Of Type Culture, NCTC 8319) was inoculated into 5 ml of brain heart infusion medium (manufactured by Difco, 0037-17-8) and cultured at 37° C. overnight. The bacterial cells were collected by centrifugation, washed with phosphate buffered saline 3 times and then suspended in phosphate buffered saline at a concentration of 1×10^7 colony forming units/ml. A mixture of 100 μl of the cell suspension, 100 μl of an aqueous sample solution, 100 μl of aqueous 1 mg/ml methemoglobin (manufactured by Sigma M9250) solution, 600 μl of phosphated buffered saline and 100 μl of aqueous 50 mM tert-butyl hydroperoxide (manufactured by Katayama Kagaku, 03-4990) solution were reacted at 37° C. for 30 minutes. To the reaction mixture was added 1 ml of 2×NMP medium [prepared by dissolving 8 g of nutrient broth (manufactured by Difco, 0003-01-6), 5 g of trypton (manufactured by Difco, 0123-17-3), 5 g of NaCl, 10 g of mannitol (manufactured by Nacalai Tesque, 213-03) and 0.035 g of phenol red (manufactured by Nacalai Tesque, 268-07) in distilled water to make the volume up to 500 ml. The pH was adjusted to 7.5 with NaOH and then the mixture was sterilized by filtration] to stop the reaction. The resultant mixture was diluted every 3-folds with NMP medium (prepared by diluting 2×NMP medium 2-folds with sterilized water) to prepare 12 serial dilutions and 160 μl of each dilution was placed in each well of a 96-well microtiter plate. The plate was incubated at 37° C. overnight.
In Table 14, + represents the sample in which the growth of the bacterium was observed, and −represents the sample in which the growth of the bacterium was not observed. The concentration shown in the uppermost line of the table is that of the sample in the reaction mixture in which the sample was reacted with tert-butyl hydroperoxide and the bacterial cells at 37° C. for 30 minutes.

HL-60 cells [4] = assay: viable cell count with Trypan Blue under a microscope; format: cell-based, human; settings: final concentration 250 μM or 125 μM
Protocol: Agarobiose, agarotetraose, agarohexaose and agarooctaose (hereinafter, sometimes, these oligosuccharaides are referred to as agarooligosaccharides) obtained in Example 5 were dissolved in water at a concentration of 2.5 mM or 1.25 mM separately, and were sterilized by filtration. HL-60 cells were suspended in RPMI 1640 medium containing 10% fetal bovine serum at a concentration of 2.5×10^5 cells/4.5 ml and to this suspension was added 0.5 ml of each of the oligosaccharide solutions. The resultant mixture were incubated with 5% CO2 at 37° C. for 24 hours or 48 hours. A part of the cell culture was taken up, followed by addition of Trypan Blue thereto and observing under a microscope to count the number of viable cells.
That is, FIG. 14 illustrates the relation between the incubation time and the number of viable cells when HL-60 cells were cultured with addition of one of the oligosaccharides at the final concentration of 250 μM. FIG. 15 illustrates the relation between the incubation time and the number of viable cells when HL-60 cells were cultured with addition of one of the oligosaccharides at the final concentration of 125 μM. In FIGS. 14 and 15, the horizontal axes represent the incubation time (hrs.) and the vertical axes represent the number of viable cells (× 10^5/5 ml). The closed circle (●) represents the addition of water (control), the open diamond (⋄) represents the addition of agarobiose, the open circle (◯) represents the addition of agarotetraose, the open triangle (Δ) represents the addition of agarohexaose and the open square (□) represents the addition of agarooctaose.

O=C[C@H](O)[C@H]1OC[C@@H](O)[C@@H]1O [3,6-anhydro-D-galactose]
inhibition of NO production (in words) (RAW 264.7 cells): inhibited NO production

O=C[C@@H](O)[C@@H]1OC[C@H](O)[C@H]1O [3,6-anhydro-L-galactose]
absorbance at 590 nm relative to that of the control group to which water was added (HL-60 cells [1]; HL-60, final concentration of 1 mM): less than one-half
apoptosis corpuscles (HL-60 cells [2]; final concentration of 1 mM): apoptosis corpuscles were observed

O=C[C@H](O)[C@@H](O)[C@@H](O)[C@H](O)CO [Galactose, galactose, reference compound]
inhibition of NO production (in words) (RAW 264.7 cells): did not
growth of the bacterium (activity of inhibiting lipid peroxide radical production) ([3]; 0.1 mM sample in the reaction mixture): −
growth of the bacterium (activity of inhibiting lipid peroxide radical production) ([3]; 1 mM sample in the reaction mixture): −

OC[C@H]1OC(O)[C@H](O)[C@@H](O[C@@H]2O[C@H]3CO[C@@H]([C@@H]2O)[C@@H]3O)[C@H]1O (stereo partly drawn) [neoagarobiose, reference compound]
inhibition of NO production induced by LPS (in words) (RAW 264.7 cells; RAW 264.7, 10 μl of 5000 to 50 μM solution per 500 μl well, 12 hours): did not

CO[C@H](C=O)[C@@H]1OC[C@H](O)[C@H]1O[C@@H]1O[C@H](CO)[C@H](O)[C@H](O)[C@H]1O [β-D-galactopyranosyl-(1→4)-3,6-anhydro-2-O-methyl-L-galactose]
antiproliferation activity against HL-60 cells (in words) (HL-60 cells [1]): strong antiproliferation activity
antiproliferation activity against HL-60 cells (in words) (HL-60 cells [1]; listed as group 3): an antiproliferation activity was observed

O=C[C@H](O)[C@H]1OC[C@@H](O)[C@@H]1O[C@@H]1O[C@H](CO)[C@H](OS(=O)(=O)O)[C@H](O)[C@H]1O [κ-carabiose, β-D-galactopyranosyl-4-sulfate-(1→4)-3,6-anhydro-D-galactose]
cell proliferation suppressed as compared with the control group (HL-60 cells [1]; HL-60, κ-carabiose at 156 μM): about 70%
antiproliferation activity against HL-60 cells (in words) (HL-60 cells [1]): cell proliferation was inhibited
apoptosis corpuscles under an optical microscope (HL-60 cells [2]; 156 μM): apoptosis corpuscles were observed
apoptosis-inducing activity (apoptosis corpuscles, in words) (HL-60 cells [2]; preparations and fractions): apoptosis corpuscles were observed

agarooctaose
apoptosis corpuscles (HL-60 cells [4]): apoptosis corpuscles were observed
number of viable cells as compared with the group to which water was added (HL-60 cells [4]; 24 hours or 48 hours): decreased
